In one assay the test system is MDA-MB-435. Briefly: In vitro tumor cell proliferation, MDA-MB-435. The format is cell-based. Conditions: values given with an undefined *, read-out: In vitro Tumor Cell Proliferation (IC50, μM) Breast MDA-MB-435. The method, boiled down: (§1)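 Tumor cells were seeded overnight at 37° C, then exposed to drug diluted in culture medium for 3 days, refed with fresh drug-containing medium and kept 4 more days. Cells were fixed with 10% trichloroacetic acid and stained with 0.4% sulforhodamine B; alternatively, CyQUANT read proliferation after 3 days' drug exposure.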

The next assay relates to Colo-205. Briefly: In vitro tumor cell proliferation, Colo-205. The format is cell-based. The conditions noted are these: values given with an undefined *, read-out: In vitro Tumor Cell Proliferation (IC50, μM) Colon Colo-205. In a few lines:
as §1

Another assay deals with T1, cdk2/cyclin E (Homo sapiens, UniProt P24941).
T1 construct: made in house; host or cells: insect cells (baculovirus co-infection)
Briefly: Cyclin-Dependent Kinase 2 Assay (cdk2/cyclin E, GST-Rb substrate). The format is biochemical. The conditions noted are these: recombinant cdk2/cyclin E, 10 μM ATP, 30 min at 30° C., several values in a cell = separate determinations, read-out: CDK-2 Inhibition IC50. The procedure:
Substrate: GST-Rb as described above for cdk4/cyclin D1
Assay conditions for cdk2/cyclin E were identical to those for cdk4/cyclin D1 including the substrate. The concentration of recombinant cdk2/cyclin E in the assay was 0.1 μg per 100 μl assay. Incubation was for 30 min at 30° C.

For the next assay, the system named is DMS-114. Briefly: In vitro tumor cell proliferation, DMS-114. The conditions noted are these: many values given with an undefined *, read-out: In vitro Tumor Cell Proliferation (IC50, μM) Lung DMS-114. The format is cell-based, human. The method, boiled down: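 Human small cell lung carcinoma DMS-114 cells plated overnight, then drug-treated for 3 days, medium and drug renewed, and incubated 4 more days. Growth read by sulforhodamine B staining after TCA fixation; alternatively by CyQUANT after 3 days' drug exposure and freezing at −80 °C.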

The next assay addresses T2, cdk4/cyclin D1 (Homo sapiens, UniProt P11802).
T2 construct: made in house; host or cells: Sf9 insect cells (Bac-to-Bac baculovirus, pFastBac)
Briefly: Cyclin-dependent Kinase 4 Assay (cdk4/cyclin D1, GST-Rb substrate). The format is biochemical. The conditions noted are these: cdk4/cyclin D1 insect cell lysate, 10 μM ATP, 30 min at 37° C., several values = separate determinations, read-out: CDK4 Inhibition IC50. In a few lines: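 IC50 against cdk4 measured by scintillation counting of bead-bound GST-Rb (0.5 μg) after filtration and four TNEN washes. Reaction was 30 min at 37 °C in HEPES pH 7.5 buffer with 10 mM MgCl2 and 1 mM EGTA. Enzyme source was 0.1 μg Sf9 lysate coinfected with cdk4 and cyclin D1.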

The next assay deals with HT-29. The assay is described as follows: In vitro tumor cell proliferation, HT-29. In kind it is cell-based, human. Conditions: many values given with an undefined *, read-out: In vitro Tumor Cell Proliferation (IC50, μM) Colon HT-29. In a few lines: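 Growth was quantified either with CyQUANT, plates frozen at −80° C after 3 days of drug, or by sulforhodamine B staining of TCA-fixed cells after 3 days of drug plus 4 days with fresh drug. Trypan blue-excluding HT-29 cells were plated overnight at 37° C before dosing.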

The test system of the next assay is A549. The assay is described as follows: In vitro tumor cell proliferation, A549. In kind it is cell-based, human. The conditions noted are these: many values given with an undefined *, read-out: In vitro Tumor Cell Proliferation (IC50, μM) Lung A549. In a few lines: as §1
The next assay relates to MDA-MB-231. Briefly: In vitro tumor cell proliferation, MDA-MB-231. In kind it is cell-based, human. Conditions: sulforhodamine B or CyQUANT assay, many values given with an undefined *, read-out: In vitro Tumor Cell Proliferation (IC50, μM) Breast MDA-MB-231. In a few lines:
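Proliferation quantified by SRB staining of TCA-fixed cells after 3 days of drug plus 4 days with replenished drug, following overnight attachment at 37 °C.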

The next assay relates to PC-3. The assay is described as follows: In vitro tumor cell proliferation, PC-3. The format is cell-based, human. Conditions: many values given with an undefined *, read-out: In vitro Tumor Cell Proliferation (IC50, μM) Prostate PC-3. The method, boiled down: as §1
For the next assay, the system named is DU145. The assay is described as follows: In vitro tumor cell proliferation, DU145. Conditions: many values given with an undefined *, read-out: In vitro Tumor Cell Proliferation (IC50, μM) Prostate DU145. The format is cell-based, human. The method, boiled down:
as §1

[1] abbreviates: Homo sapiens, MDA-MB-435, MDA-MB-435.
Where [2] appears, read: Homo sapiens, COLO 205, Colo-205.
[3] abbreviates: Homo sapiens, MDA-MB-231, MDA-MB-231.

Where “and” joins values, the source holds several entries; their conditions need not be identical. Equal entries are not always repeated. Structures can show the parent of a compound that is named as a salt. Where two headings read alike, the source gives them in different places.

T2 sequence (P11802 whole entry): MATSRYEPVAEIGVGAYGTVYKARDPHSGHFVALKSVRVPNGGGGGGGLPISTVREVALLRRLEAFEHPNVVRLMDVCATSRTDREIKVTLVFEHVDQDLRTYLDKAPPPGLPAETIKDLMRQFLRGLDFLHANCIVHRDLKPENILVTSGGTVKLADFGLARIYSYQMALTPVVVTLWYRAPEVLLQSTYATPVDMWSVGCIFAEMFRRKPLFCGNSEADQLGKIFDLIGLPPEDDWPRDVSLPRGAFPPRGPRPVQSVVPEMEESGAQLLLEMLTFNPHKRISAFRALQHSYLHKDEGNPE
T2 sequence (P24385 whole entry partner): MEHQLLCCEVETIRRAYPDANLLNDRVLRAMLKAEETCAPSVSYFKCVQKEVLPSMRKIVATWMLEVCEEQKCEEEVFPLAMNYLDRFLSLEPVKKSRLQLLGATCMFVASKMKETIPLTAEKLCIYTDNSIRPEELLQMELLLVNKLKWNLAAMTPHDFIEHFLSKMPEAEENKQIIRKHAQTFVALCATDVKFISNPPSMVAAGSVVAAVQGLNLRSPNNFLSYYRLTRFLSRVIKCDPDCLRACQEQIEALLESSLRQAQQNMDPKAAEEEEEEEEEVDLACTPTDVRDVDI

Turning to `N[C@H]1CC[C@H](Nc2nc(NC3CCN(Cc4c(Cl)cccc4Cl)CC3)c3ncn(C4CCCC4)c3n2)CC1` [Example 45, 2-[Trans-(4-aminocyclohexyl)amino]-6-[4-(1-(2,6-dichlorobenzyl))piperidinylamino]-9-cyclopentylpurine], the IC50 is 0.96 µM in the assay on MDA-MB-435 (setting [1]); 0.75 µM in the assay with MDA-MB-435 (MDA-MB-435); 0.48 µM in the assay on Colo-205 (Colo-205); 0.53 µM with Colo-205 (setting [2]); 1100 nM and 900 nM at cdk2/cyclin E; 0.71 µM in the assay with DMS-114 (DMS-114). For the same compound, the IC50 in the assay with DMS-114 (Homo sapiens, DMS-114, DMS-114) was found to be 1.3 µM; on cdk4/cyclin D1, 6700 nM; in the assay on HT-29 (HT-29), 0.55 µM; with HT-29 (Homo sapiens, HT-29, HT-29) it was 0.71 µM; in the assay with A549 (A549), 0.32 µM; in the assay with A549 (Homo sapiens, A549, A549), 0.46 µM. The IC50 with MDA-MB-231 (setting [3]) was 0.89 µM; with MDA-MB-231 (MDA-MB-231), 0.71 µM; in the assay with PC-3 (Homo sapiens, PC-3, PC-3), 0.63 µM; in the assay with PC-3 (PC-3), 0.74 µM; in the assay with DU145 (DU145) it was 0.46 µM; in the assay on DU145 (Homo sapiens, DU-145, DU145) it was 0.51 µM.

Regarding `N[C@H]1CC[C@H](Nc2nc(NC3CCN(Cc4ccc(C(F)(F)F)cc4)CC3)c3ncn(C4CCCC4)c3n2)CC1` [Example 46, 2-[Trans-(4-aminocyclohexyl)amino]-6-[4-(1-(4-trifluoromethylbenzyl))piperidinylamino]-9-cyclopentylpurine], the IC50 in the assay on MDA-MB-435 (MDA-MB-435) is 0.61 µM and 0.62 µM; in the assay on Colo-205 (Colo-205), 0.44 µM and 0.46 µM; at cdk2/cyclin E, 500 nM and 450 nM; with DMS-114 (DMS-114), 0.35 µM and 0.58 µM; at cdk4/cyclin D1, 20000 nM; with HT-29 (HT-29), 0.53 µM and 0.44 µM. The IC50 with A549 (A549) is 0.28 µM and 0.33 µM; in the assay on MDA-MB-231 (MDA-MB-231), 0.46 µM and 0.53 µM; in the assay on PC-3 (PC-3) it was 0.39 µM and 0.46 µM; with DU145 (DU145), 0.36 µM and 0.49 µM.

Turning to `N[C@H]1CC[C@H](Nc2nc(N[C@H]3CC[C@H](O)CC3)c3ncn(C4CCCC4)c3n2)CC1` [Example 145a, Trans-2-[Trans-(4-aminocyclohexyl)amino]-6-[(4-hydroxy)cyclohexylamino]-9-cyclopentylpurine dihydrochloride], the IC50 amounted to 3.3 µM in the assay with MDA-MB-435 (setting [1]); 3.8 µM with MDA-MB-435 (MDA-MB-435, dihydrochloride); 1.6 µM in the assay with Colo-205 (Colo-205, dihydrochloride); 1.7 µM with Colo-205 (setting [2]); 50 nM at cdk2/cyclin E; 3.1 µM in the assay on DMS-114 (DMS-114, dihydrochloride). Also, the IC50 was 4.6 µM in the assay on DMS-114 (Homo sapiens, DMS-114, DMS-114); 1500 nM and 1600 nM on cdk4/cyclin D1; 2.3 µM in the assay with HT-29 (HT-29, dihydrochloride); 3.4 µM in the assay with HT-29 (Homo sapiens, HT-29, HT-29); 4.8 µM in the assay with A549 (A549, dihydrochloride); 4.4 µM with A549 (Homo sapiens, A549, A549). For the same compound, the IC50 with MDA-MB-231 (setting [3]) was determined as 3 µM; in the assay on MDA-MB-231 (MDA-MB-231, dihydrochloride), 2.9 µM; in the assay with PC-3 (Homo sapiens, PC-3, PC-3), 1.9 µM; with PC-3 (PC-3, dihydrochloride), 2.1 µM; with DU145 (DU145, dihydrochloride) it was 3.8 µM; in the assay on DU145 (Homo sapiens, DU-145, DU145), 3.9 µM.

For the compound `N[C@H]1CC[C@H](Nc2nc(NC3(CO)CCCC3)c3ncn(C4CCCC4)c3n2)CC1` [Example 146, (R,S)-2-[Trans-(4-aminocyclohexyl)amino]-6-[(1-hydroxymethyl)cyclopentylamino]-9-cyclopentylpurine dihydrochloride], the IC50 with MDA-MB-435 (MDA-MB-435, dihydrochloride) is 21 µM; in the assay on Colo-205 (setting [2]), 12 µM; on cdk2/cyclin E, 164 nM; in the assay with DMS-114 (DMS-114, dihydrochloride) it was 11 µM; on cdk4/cyclin D1 it was 1600 nM and 810 nM and 500 nM; in the assay on HT-29 (HT-29, dihydrochloride), 11 µM. The IC50 with HT-29 (Homo sapiens, HT-29, HT-29) came to 16 µM; in the assay with A549 (Homo sapiens, A549, A549), 12 µM; with MDA-MB-231 (MDA-MB-231, dihydrochloride), 12 µM; in the assay on PC-3 (Homo sapiens, PC-3, PC-3), 11 µM; with PC-3 (PC-3, dihydrochloride), 10 µM; in the assay with DU145 (DU145, dihydrochloride), 16 µM. For the same compound, the IC50 in the assay on DU145 (Homo sapiens, DU-145, DU145) is 12 µM.

`N[C@H]1CC[C@H](Nc2nc(NC3CCN(Cc4cccc5ccccc45)CC3)c3ncn(C4CCCC4)c3n2)CC1` [Example 147-a, 2-[Trans-(4-aminocyclohexyl)amino]-6-[4-[1-(1-naphthyl)methyl]piperidinylamino)-9-cyclopentylpurine trihydrochloride]: the IC50 was 0.42 µM with MDA-MB-435 (setting [1]); 0.408 µM with MDA-MB-435 (MDA-MB-435, trihydrochloride); 0.2 µM in the assay on Colo-205 (setting [2]); 410 nM and 97 nM and 440 nM at cdk2/cyclin E; 0.33 µM in the assay with DMS-114 (DMS-114, trihydrochloride); 0.32 µM in the assay with DMS-114 (Homo sapiens, DMS-114, DMS-114). For the same compound, the IC50 is 2900 nM and 2100 nM at cdk4/cyclin D1; 0.32 µM in the assay with HT-29 (Homo sapiens, HT-29, HT-29); 0.17 µM in the assay with A549 (Homo sapiens, A549, A549); 0.35 µM in the assay on MDA-MB-231 (setting [3]); 0.34 µM in the assay with MDA-MB-231 (MDA-MB-231, trihydrochloride); 0.24 µM in the assay with PC-3 (Homo sapiens, PC-3, PC-3). Moreover, the IC50 in the assay with PC-3 (PC-3, trihydrochloride) came to 0.34 µM; in the assay with DU145 (DU145, trihydrochloride) it was 0.33 µM; in the assay with DU145 (Homo sapiens, DU-145, DU145), 0.22 µM.

(Values after US6479487B1, “6, 9-disubstituted 2-[trans-(4-aminocyclohexyl)amino] purines” (Aventis Pharmaceuticals Inc., priority 1998, dated 2002).)
